Experimental findings from ChEMBL document CHEMBL5058541, “EUbOPEN Chemogenomics Library 2 (NanoBRET)” (2022) are described below.

One assay deals with T1, Peregrin (Homo sapiens) (UniProt P55201).
T1 sequence (whole entry): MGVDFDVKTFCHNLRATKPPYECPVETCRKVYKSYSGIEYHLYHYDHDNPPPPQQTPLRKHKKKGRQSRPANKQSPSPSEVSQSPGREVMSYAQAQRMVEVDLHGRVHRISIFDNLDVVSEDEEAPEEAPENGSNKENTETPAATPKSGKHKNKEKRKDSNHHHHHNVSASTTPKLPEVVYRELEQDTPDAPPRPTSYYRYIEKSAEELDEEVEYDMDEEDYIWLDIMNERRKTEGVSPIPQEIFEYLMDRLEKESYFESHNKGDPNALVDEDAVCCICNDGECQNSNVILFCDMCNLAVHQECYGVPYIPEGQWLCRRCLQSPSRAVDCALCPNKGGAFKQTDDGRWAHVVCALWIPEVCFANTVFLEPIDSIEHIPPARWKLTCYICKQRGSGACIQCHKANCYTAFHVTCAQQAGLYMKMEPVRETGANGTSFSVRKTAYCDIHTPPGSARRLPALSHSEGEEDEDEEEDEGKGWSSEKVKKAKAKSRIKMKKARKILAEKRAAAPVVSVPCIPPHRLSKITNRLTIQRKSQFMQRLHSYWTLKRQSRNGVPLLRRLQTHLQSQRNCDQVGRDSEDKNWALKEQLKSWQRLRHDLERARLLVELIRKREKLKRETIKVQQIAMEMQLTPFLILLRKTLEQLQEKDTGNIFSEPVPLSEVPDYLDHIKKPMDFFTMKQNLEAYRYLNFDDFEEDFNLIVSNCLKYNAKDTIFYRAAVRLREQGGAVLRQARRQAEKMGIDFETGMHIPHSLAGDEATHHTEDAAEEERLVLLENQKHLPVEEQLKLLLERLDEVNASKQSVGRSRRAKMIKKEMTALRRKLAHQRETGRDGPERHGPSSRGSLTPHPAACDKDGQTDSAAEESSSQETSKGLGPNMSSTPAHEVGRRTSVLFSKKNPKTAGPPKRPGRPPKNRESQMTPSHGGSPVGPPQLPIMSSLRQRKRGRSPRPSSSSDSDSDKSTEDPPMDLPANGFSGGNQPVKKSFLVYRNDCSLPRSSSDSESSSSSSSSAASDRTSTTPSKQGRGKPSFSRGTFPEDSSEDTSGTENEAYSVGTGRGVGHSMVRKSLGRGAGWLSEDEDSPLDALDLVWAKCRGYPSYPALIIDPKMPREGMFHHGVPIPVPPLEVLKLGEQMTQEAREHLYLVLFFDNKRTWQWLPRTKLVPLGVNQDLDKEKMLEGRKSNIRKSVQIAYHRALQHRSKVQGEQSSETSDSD
Conditions: Compound concentration 20.0 uM, Protein concentration 2.0 uM, Result type QC Liability.

The target of assay [1] is Fibroblast growth factor receptor 3 (Homo sapiens) (UniProt P22607). Conditions: Compound concentration 20.0 uM, Protein concentration 2.0 uM, Result type QC Liability.
Description: Thermal Shift Assay. Domain: start/stop: P449-E759
Assay [2] concerns the target T2, YEATS domain-containing protein 2 (Homo sapiens) (UniProt Q9ULM3).
T2 sequence (whole entry): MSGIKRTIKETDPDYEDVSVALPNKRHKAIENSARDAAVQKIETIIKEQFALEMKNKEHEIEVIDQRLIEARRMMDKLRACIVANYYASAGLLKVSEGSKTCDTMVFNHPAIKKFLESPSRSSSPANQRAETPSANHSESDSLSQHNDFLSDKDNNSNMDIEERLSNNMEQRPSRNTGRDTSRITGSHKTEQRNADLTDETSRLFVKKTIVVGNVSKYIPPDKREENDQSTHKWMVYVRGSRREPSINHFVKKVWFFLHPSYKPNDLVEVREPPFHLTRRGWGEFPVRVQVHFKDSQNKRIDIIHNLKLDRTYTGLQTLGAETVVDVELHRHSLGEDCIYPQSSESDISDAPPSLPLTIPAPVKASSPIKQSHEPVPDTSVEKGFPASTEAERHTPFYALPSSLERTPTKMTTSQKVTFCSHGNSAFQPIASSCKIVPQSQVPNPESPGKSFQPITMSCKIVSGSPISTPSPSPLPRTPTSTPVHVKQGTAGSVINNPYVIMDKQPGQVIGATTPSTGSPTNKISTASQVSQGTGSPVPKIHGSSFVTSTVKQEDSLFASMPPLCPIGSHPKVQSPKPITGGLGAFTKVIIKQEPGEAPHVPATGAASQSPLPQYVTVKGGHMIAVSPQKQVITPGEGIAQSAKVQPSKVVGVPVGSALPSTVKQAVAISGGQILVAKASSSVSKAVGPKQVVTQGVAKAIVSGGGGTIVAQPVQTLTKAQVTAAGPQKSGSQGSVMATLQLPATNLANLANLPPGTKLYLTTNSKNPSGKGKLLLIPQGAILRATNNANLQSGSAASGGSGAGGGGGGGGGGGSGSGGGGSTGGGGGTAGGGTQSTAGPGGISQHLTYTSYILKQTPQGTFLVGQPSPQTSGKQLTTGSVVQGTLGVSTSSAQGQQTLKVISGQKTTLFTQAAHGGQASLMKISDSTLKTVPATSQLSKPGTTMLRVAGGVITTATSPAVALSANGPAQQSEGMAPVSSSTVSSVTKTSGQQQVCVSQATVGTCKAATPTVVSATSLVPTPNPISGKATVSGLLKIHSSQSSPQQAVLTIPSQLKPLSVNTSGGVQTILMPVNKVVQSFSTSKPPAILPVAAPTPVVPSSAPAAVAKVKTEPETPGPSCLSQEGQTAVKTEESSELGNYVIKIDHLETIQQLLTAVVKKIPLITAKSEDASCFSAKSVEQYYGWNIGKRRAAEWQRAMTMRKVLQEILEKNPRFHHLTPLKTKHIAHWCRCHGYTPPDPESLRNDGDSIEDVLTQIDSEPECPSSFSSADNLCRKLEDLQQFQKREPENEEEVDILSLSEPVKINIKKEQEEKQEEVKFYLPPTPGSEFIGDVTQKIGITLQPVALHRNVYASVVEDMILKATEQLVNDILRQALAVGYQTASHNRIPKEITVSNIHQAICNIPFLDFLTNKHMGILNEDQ
Nature of the assay: Thermal Shift Assay. Domain: start/stop M1-D141. Conditions: Compound concentration 25.0 uM, Protein concentration 2.0 uM.

Fibroblast growth factor receptor 3 (Homo sapiens), sequence (P22607 23-806 limits assumed): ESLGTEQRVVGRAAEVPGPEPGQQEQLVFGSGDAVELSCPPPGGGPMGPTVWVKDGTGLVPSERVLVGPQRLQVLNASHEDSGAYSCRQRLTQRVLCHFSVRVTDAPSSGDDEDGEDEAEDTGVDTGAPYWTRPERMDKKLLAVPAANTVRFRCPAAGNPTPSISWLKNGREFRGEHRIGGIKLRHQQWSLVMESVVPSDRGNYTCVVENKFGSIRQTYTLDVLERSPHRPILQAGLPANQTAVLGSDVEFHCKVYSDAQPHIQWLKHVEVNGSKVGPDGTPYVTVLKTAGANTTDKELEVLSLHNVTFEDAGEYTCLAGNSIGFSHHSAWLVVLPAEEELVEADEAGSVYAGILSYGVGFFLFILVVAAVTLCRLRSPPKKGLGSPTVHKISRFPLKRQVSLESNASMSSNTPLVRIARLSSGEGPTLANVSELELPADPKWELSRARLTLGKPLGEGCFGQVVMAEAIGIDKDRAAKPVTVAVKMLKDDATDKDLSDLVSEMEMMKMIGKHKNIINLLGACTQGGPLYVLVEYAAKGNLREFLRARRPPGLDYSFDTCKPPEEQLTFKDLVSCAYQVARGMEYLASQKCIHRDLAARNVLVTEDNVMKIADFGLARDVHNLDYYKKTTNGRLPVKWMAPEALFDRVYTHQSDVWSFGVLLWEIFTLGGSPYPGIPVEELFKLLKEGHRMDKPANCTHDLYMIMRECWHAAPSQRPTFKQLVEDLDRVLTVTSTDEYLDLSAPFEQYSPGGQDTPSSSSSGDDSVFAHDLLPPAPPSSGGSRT

Turning to `CN(C)C(=O)c1ccc(-c2cc(C(=O)N[C@@H]3CCc4ccccc43)no2)cc1O`, the figures for the ΔTm (on Peregrin (Homo sapiens); in assay [1]; in assay [2]) were -0.349 c, -0.162 c and -0.01 c, respectively.
